Patent publication US20240360091A1, “GLUN2B-SUBUNIT SELECTIVE ANTAGONISTS OF THE N-METHYL-D-ASPARTATE RECEPTORS WITH ENHANCED POTENCY AT ACIDIC PH” (Emory University, priority 2021, published 2024)
Read-outs that look alike come from different tables or passages of the source.

How the values were obtained:
[1] = test system: motor coordination of mice on rotarod; assay: Rotarod performance; assay type: in vivo, mouse; conditions: 30 mg/kg IP, all four trials
Method: The locomotor and rotarod studies were approved by the Georgia State University IACUC, an AAALAC accredited institution under the supervision of licensed veterinarians. Mice were group housed, provided nestlets and shelters with access to food pellets and water ad libitum under a 12-hour light/dark cycle.
For rotarod experiments, male C57BL/6 mice (>90 days old) were tested using a Rotamax 4/8 rotarod (Columbus Instruments, Columbus, Ohio). Prior to training and testing, the mice were brought to the testing room and allowed to acclimate for two hours prior to any further handling. Mice were placed on a rotating rod (5 rpm), 3.8 cm in diameter and 8 cm wide, elevated 30 cm from the floor of a chamber. After 10 sec of rotation at a fixed velocity, the rotation was slowly accelerated from 5 to 35 rpm over a 5 min period. The duration of time that the mouse could stay on the rotarod, without hanging on for a full rotation or without falling, was recorded. Mice were trained 4 times at 25 min inter-trial intervals on each day for two days. On day three, mice were randomly assigned to treatment groups and administered test drug or vehicle (via IP administration) 25 min prior to testing (4 trials with inter-trial interval of 25 min). Individuals performing the experiment were blinded to the identity of each treatment group. Results were analyzed by ANOVA and Dunnett's post hoc test to compare duration of time on the rotating rod of drug-treated groups to the vehicle controls.

[2] = target: human GluN1/GluN2B (Homo sapiens (Human), UniProt Q05586+Q13224); assay: Two electrode voltage-clamp recordings from Xenopus laevis oocytes, GluN2B potency and pH dependence; assay type: cell-based; conditions: for pH Boost: ratio of IC50 at pH 7.6 to IC50 at pH 6.9
Method: Two Electrode Voltage-Clamp Recordings from Xenopus laevis Oocytes
Stage V-VI Xenopus laevis unfertilized oocytes were purchased from Ecocyte (Austin, Texas) and injected with 5 ng of GluN1 and 10 ng of GluN2B cRNAs. The cDNAs for human GluN1 and GluN2B, encoding NCBI reference sequences NM_007327.3 and NM_000834.3, respectively, were linearized and cRNAs made as previously described (Traynelis et al., J Neurosci, 1998, 18(16):6163-75). After injection, the oocytes were incubated in Barth's culture solution (88 mM NaCl, 1 mM KCl, 2.4 mM NaHCO3, 10 mM HEPES, 0.82 mM MgSO4, 0.33 mM Ca(NO3)2, 0.41 mM CaCl2), 10 U/mL PenStrep, and 0.1 mg/mL gentamycin, pH 7.4) at 18° C. Two electrode voltage-clamp (TEVC) recordings were made at 22-23° C., 2-7 days after the injection, using Warner OC725C amplifiers (VHOLD=−40 mV). Briefly, the oocytes were perfused in a recording solution (90 mM NaCl, 1 mM KCl, 10 mM HEPES, 0.01 mM EDTA, and 0.5 mM BaCl2) adjusted to either pH 7.6 or 6.9 by addition of NaOH or HCl, respectively (pH 6.9 solutions were prepared by addition of HCl to pH 7.6 solutions to maintain an equal concentration of Na^+ ions in both solutions). Concentration-response curves of the compounds were obtained by application of increasing concentrations of each individual compound until steady state conditions were obtained, in the presence of saturating agonist concentrations (i.e., 100 μM glutamate and 30 μM glycine). In general, oocyte recordings were made from 4-10 oocytes per experiment (i.e., oocyte injection cycle) from ≥two experiments. The concentration-response relationship for each oocyte was fit by equation (1),
Percent Response=(100−minimum)/(1+([concentration]/IC50)^nH)+minimum (1)
where minimum is the residual response in saturating concentration of each individual compound (constrained to be ≥0), and IC50 is the concentration of compound that causes half-maximal inhibition, and nH is the Hill slope.

[3] = pH 6.9, read-out: IC50 (μM) pH 6.9
[4] = pH 7.6, read-out: IC50 (μM) pH 7.6

Chain of human GluN1/GluN2B (Q13224 27-1484, other chains not shown): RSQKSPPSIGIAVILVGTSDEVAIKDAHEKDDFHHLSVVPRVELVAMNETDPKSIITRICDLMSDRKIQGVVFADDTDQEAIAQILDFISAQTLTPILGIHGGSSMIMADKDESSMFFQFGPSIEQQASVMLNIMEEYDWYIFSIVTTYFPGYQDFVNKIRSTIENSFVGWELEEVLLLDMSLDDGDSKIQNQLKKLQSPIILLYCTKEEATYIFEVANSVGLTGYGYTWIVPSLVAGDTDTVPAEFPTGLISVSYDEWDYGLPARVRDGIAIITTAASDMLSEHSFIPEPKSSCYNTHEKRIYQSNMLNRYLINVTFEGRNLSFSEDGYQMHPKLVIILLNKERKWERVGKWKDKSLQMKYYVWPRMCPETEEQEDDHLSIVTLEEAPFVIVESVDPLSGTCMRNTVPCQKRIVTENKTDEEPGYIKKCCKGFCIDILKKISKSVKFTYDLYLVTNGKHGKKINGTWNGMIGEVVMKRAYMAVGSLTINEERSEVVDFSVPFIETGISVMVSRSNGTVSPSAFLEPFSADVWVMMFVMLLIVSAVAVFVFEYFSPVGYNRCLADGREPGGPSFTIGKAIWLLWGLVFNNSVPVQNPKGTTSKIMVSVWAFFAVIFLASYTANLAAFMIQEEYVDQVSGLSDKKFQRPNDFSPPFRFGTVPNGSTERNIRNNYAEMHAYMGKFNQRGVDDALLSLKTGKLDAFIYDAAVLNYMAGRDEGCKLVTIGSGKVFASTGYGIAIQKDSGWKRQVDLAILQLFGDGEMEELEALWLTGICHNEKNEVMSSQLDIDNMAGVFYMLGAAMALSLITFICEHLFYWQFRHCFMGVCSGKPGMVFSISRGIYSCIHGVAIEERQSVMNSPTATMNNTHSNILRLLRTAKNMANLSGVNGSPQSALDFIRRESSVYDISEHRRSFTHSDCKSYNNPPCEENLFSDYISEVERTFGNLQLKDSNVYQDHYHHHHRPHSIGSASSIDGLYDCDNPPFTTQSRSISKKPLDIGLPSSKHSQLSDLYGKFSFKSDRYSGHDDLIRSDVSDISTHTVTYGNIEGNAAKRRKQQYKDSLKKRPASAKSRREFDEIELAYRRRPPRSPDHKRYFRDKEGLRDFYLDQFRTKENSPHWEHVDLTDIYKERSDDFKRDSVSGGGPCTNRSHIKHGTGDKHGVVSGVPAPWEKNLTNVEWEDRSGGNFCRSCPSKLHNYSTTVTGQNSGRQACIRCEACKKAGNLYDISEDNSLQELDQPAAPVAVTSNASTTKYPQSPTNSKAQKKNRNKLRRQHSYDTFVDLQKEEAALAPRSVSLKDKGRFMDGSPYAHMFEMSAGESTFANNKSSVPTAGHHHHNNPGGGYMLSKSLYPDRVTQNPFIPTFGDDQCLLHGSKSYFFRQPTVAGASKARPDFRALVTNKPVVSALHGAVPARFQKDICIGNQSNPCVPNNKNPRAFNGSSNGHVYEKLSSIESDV

Row | Structure (SMILES) | IC50 [2, 3] | IC50 [2, 4] | pH Boost [2] | potency against GluN2B compared to corresponding S enantiomer [2] | IC50 ([2]; pH 6.9, read-out: IC50 value at pH 6.9) | IC50 ([2]; pH 7.6, read-out: IC50 value at pH 7.6) | latency-to-fall score [1]
1 | CC(C(O)c1ccc(O)cc1)N1CCC(Cc2ccccc2)CC1 (stereo not drawn) [ifenprodil, reference compound] | – | – | – | – | – | – | significant reduction
2 | Oc1ccc(OC[C@H](O)CN2CCN(c3ccccc3)CC2)cc1 [Compound 10243] | 0.071 µM | 0.574 µM | 8.1 | – | – | – | –
3 | CC(C)c1ccc(N2CCN(C[C@H](O)COc3ccc(O)cc3)CC2)cc1 [Compound 10082] | 0.356 µM | 1.37 µM | 3.8 | – | – | – | –
4 | NC(=O)Nc1ccc(OC[C@@H](O)CN2CCN(c3ccc(Cl)c(Cl)c3)CC2)cc1 [Compound 10131] | 0.103 µM | 0.947 µM | 9.2 | – | – | – | –
5 | CCCCc1ccc(N2CCN(C[C@@H](O)COc3ccc(O)cc3)CC2)cc1 [Compound 10249] | 0.549 µM | 3.42 µM | 6.2 | lower potency | – | – | –
6 | NC(=O)Nc1ccc(OC[C@H](O)CN2CCN(c3ccc(Cl)cc3)CC2)cc1 [Compound 10165] | 0.019 µM | 0.06 µM | 3.2 | – | – | – | –
7 | Oc1ccc(OC[C@@H](O)CN2CCN(c3ccccc3)CC2)cc1 [Compound 10039] | 0.217 µM | 0.476 µM | 2.2 | – | – | – | –

Further lines, with some results ahead:

Row | IC50 [2, 3] | IC50 [2, 4] | pH Boost [2] | potency against GluN2B compared to corresponding S enantiomer [2] | IC50 ([2]; pH 6.9, read-out: IC50 value at pH 6.9) | IC50 ([2]; pH 7.6, read-out: IC50 value at pH 7.6) | Structure (SMILES) | latency-to-fall score [1]
8 | 0.047 µM | 0.294 µM | 6.3 | lower potency | – | – | CS(=O)(=O)Nc1ccc(OC[C@H](O)CN2CCN(c3ccc(F)c(F)c3)CC2)cc1 [Compound 10233] | –
9 | 0.087 µM | 0.978 µM | 11.2 | – | – | – | Oc1ccc(OC[C@@H](O)CN2CCN(c3ccc(F)c(F)c3)CC2)cc1 [Compound 10030] | –
10 | 0.05 µM | 0.272 µM | 5.4 | – | – | – | Oc1ccc(OC[C@H](O)CN2CCN(c3ccc(F)c(F)c3)CC2)cc1 [Compound 10052] | –
11 | 0.046 µM | 0.316 µM | 6.9 | – | – | – | CCc1ccc(N2CCN(C[C@H](O)COc3ccc(O)cc3)CC2)cc1 [Compound 10171] | –
12 | 0.029 µM | 0.37 µM | 12.8 | – | – | – | O=C1Cc2cc(OC[C@@H](O)CN3CCN(c4ccc(Cl)cc4)CC3)ccc2N1 [Compound 10146] | –
13 | 0.031 µM | 0.558 µM | 18.0 | – | – | – | CS(=O)(=O)Nc1ccc(OC[C@@H](O)CN2CCN(c3ccc(F)c(F)c3)CC2)cc1 [Compound 93-108] | –
14 | 0.144 µM | 0.675 µM | 4.7 | – | – | – | CC(C)c1ccc(N2CCN(C[C@@H](O)COc3ccc(O)cc3)CC2)cc1 [Compound 10247] | –
15 | 0.121 µM | 0.592 µM | 4.9 | lower potency | – | – | O=C1Cc2cc(OC[C@H](O)CN3CCN(c4ccc(Cl)cc4)CC3)ccc2N1 [Compound 10228] | –
16 | 0.111 µM | 0.717 µM | 6.5 | – | 0.111 µM | 0.717 µM | O=C1CCc2cc(OC[C@@H](O)CN3CCN(c4ccc(C(F)(F)F)cc4)CC3)ccc2N1 [NP10309] | –
